Results from patent US20220095617A1, “PLANT GROWTH REGULATING AGENT” (IDEMITSU KOSAN CO.,LTD., priority 2019, published 2022).

What was measured:
[1] = test system: Cabbage (Okina); assay: Example 18: Growth-promoting effect (cabbage, seed dressing); format: in vivo; conditions: for Increase/decrease of above-ground part / Increase/decrease of underground part: non-addition group = 100%; for Weight of above-ground part FW / Weight of underground part FW: 25° C., 28 days
Experimental: For cabbage (Okina, Takii & Co., Ltd.), seed dressing was carried out by application, at 5% seed weight, of a dilution of hesperidin prepared at a final concentration of 1 to 100 ppm (using water as the solvent). The dressed cabbage seeds were sown on a cell tray filled with seedling culture soil (manufactured by Nihon Hiryo Co., Ltd.; “Naebijin N100”). […]

[2] = test system: lettuce (Green Wave); assay: Example 17: Growth-promoting effect (lettuce, seed treatment); format: in vivo; conditions: for Increase/decrease of above-ground part / Increase/decrease of underground part: non-addition group = 100%; for Weight of above-ground part FW / Weight of underground part FW: 25° C., 28 days
Experimental: For lettuce (Green Wave, Takii & Co., Ltd.), seed dressing was carried out by application, at 5% seed weight, of a dilution of hesperidin prepared at a final concentration of 1 to 100 ppm (using water as the solvent). The dressed lettuce seeds were sown on a cell tray filled with seedling culture soil (manufactured by Nihon Hiryo Co., Ltd.; “Naebijin N100”). […]

[3] = test system: lettuce (Green Wave); assay: Example 3: High-temperature stress Petri dish test (lettuce), blending with β-carotene; format: in vivo; conditions: 0.1 ppm
[4] = test system: Carrot (US Harumakigosun carrot) seeds; assay: Example 7: High-temperature stress Petri dish test (carrot seeds); format: in vivo; conditions: for Germination rate, Increase rate: non-addition group = 100.0; for Germination rate, Average: seeds 55° C. hot water 20 minutes, 23° C. 7 days
Experimental: (§1) Carrot (US Harumakigosun carrot, The Yokohama Nursery Co., Ltd.) seeds were soaked in hot water at 55° C. for 20 minutes to perform high-temperature treatment. […] A group similarly soaked in distilled water was provided as a non-addition group. After the soaking treatment, the seeds were dried in air, and then 20 seeds were sown on each of shallow Petri dishes in which qualitative filter paper was placed. To the filter paper in each Petri dish, 3 mL of distilled water was uniformly added dropwise. […] For each group, three measurement results were obtained (N=3).

[5] = test system: Rice (Koshihikari) seeds; assay: Example 5: High-temperature stress Petri dish test (rice seeds); format: in vivo; conditions: for Germination rate, Increase rate: non-addition group = 100.0; for Germination rate, Average: seeds 65° C. hot water 10 minutes, 28° C. 5 days
Experimental: as §1, with “Rice (Koshihikari) seeds” for “Carrot (US Harumakigosun carrot, The Yokohama Nursery Co., Ltd.) seeds”, “at 65°” for “at 55°”, “for 10” for “for 20”, “dish, 5” for “dish, 3”

[6] = test system: lettuce (Green Wave); assay: Example 22: pH stress Petri dish test (lettuce); format: in vivo; conditions: for Root length, Increase rate: non-addition group = 100.0
[7] = test system: lettuce (Green Wave); assay: Example 1: High-temperature stress Petri dish test (lettuce), comparison with other natural products; format: in vivo; conditions: 0.1 ppm in agar medium
[8] = test system: tomato (Momotaro Home); assay: Example 24: Dry stress Petri dish test (tomato); format: in vivo; conditions: Dry stress (20 g/L polyethylene glycol); for Root length, Average: 28° C., 12 days; for Root length, Increase rate: non-addition group = 100.0
Text: For each group, three measurement results were obtained (N=3).

[9] = test system: Sphaerotheca cucurbitae; assay: Example 20: Control effect against cucumber powdery mildew; format: in vivo; conditions: 14 days
Experimental: […] cucumber (Hanjirofushinari, Takii & Co., Ltd.) in the two leaf stage, and foliar spraying of 15 ml each of dilutions of hesperidin prepared at final concentrations of 10 to 1000 ppm (using 0.01% Tween 20 solution as the solvent) was carried out. After air-drying, foliar spraying of cucumber powdery mildew spores (1×10^4 spores/ml, using 0.01% Tween 20 solution as the solvent) was carried out. After air-drying, cultivation was carried out in a greenhouse for 14 days, and then the control effect was evaluated.
Preventive value=100−(damage in the addition group/damage in the non-addition group)×100 (Equation 3)

[10] = test system: lettuce (Green Wave); assay: Example 4: High-temperature stress Petri dish test (lettuce), comparison with flavonoids; format: in vivo; conditions: 0.1 ppm
[11] = test system: Cabbage (Okina); assay: Example 10: High-temperature stress pot test (cabbage); format: in vivo; conditions: for Fresh weight of above-ground part, Increase rate / Fresh weight of underground part, Increase rate: non-addition group = 100.0; for Fresh weight of above-ground part, Average / Fresh weight of underground part, Average: greenhouse 35° C., 30 days
Experimental: Cabbage (Okina, Takii & Co., Ltd.) was sown on a cell tray filled with seedling culture soil (manufactured by Nihon Hiryo Co., Ltd.; “Naebijin N100”). […] Cultivation was carried out in a greenhouse (average daytime temperature, 35° C.) for 30 days, and then the fresh weight of the above-ground part and the fresh weight of the underground part were evaluated. For each group, 15 to 20 measurement results were obtained (N=15 to 20).

[12] = test system: lettuce (Green Wave); assay: Example 2: High-temperature stress Petri dish test (lettuce), blending with neohesperidin; conditions: 0.1 ppm
Experimental: For seeds, 2% water agar medium (using water as the solvent), which was prepared such that hesperidin (Fujifilm Wako Pure Chemical Corporation; special-grade reagent) and neohesperidin (Fujifilm Wako Pure Chemical Corporation; special-grade reagent) were contained at the predetermined final concentrations shown in Table 2, was filled into square Petri dishes (“model number: D-210-16”, manufactured by As One Corporation). Before high-temperature treatment, lettuce (Green Wave, Takii & Co., Ltd.) was sown on 2% water agar medium, and lettuce seedlings on day 2 after the sowing were transplanted to the above-described agar medium to which the hesperidin and/or the like was/were added. At the time of the transplantation, the tip of the root was marked. Each Petri dish after the transplantation was placed in an incubator (“model number: FLI-2010A”, manufactured by EYELA) at an angle of 45° with respect to the bottom surface, and high-temperature treatment was carried out at 42° C. for 1.5 hours. Thereafter, culture was similarly performed at 23° C. for 2 days, and then the increase in the root length was evaluated in terms of elongation from the tip of the root of each seedling at the time of the transplantation. In addition, for evaluation of the effect of the mixture of hesperidin and neohesperidin in normal cultivation, culture was similarly performed at 23° C. without performing the high-temperature treatment, followed by evaluation of the increase in the root length. […] The Colby's equation is as follows.
E=(x+y)−(x·y)/100 Colby's equation:
E: Expected root length x: Root length in the case of application of hesperidin alone y: Root length in the case of application of neohesperidin alone For each group, 15 measurement results were obtained (N=15).

[13] = seed treatment (dressing) 1 ppm
[14] = seed treatment (dressing) 10 ppm
[15] = seed treatment (dressing) 100 ppm
[16] = High-temperature treatment (42° C., 1.5 hours)

## COc1ccc([C@@H]2CC(=O)c3c(O)cc(O[C@@H]4O[C@H](CO[C@@H]5O[C@@H](C)[C@H](O)[C@@H](O)[C@H]5O)[C@@H](O)[C@H](O)[C@H]4O)cc3O2)cc1O [Hesperidin]
[1]; 1 ppm
  Increase/decrease of above-ground part: 106%
  Increase/decrease of underground part: 108%
[1]; 10 ppm
  Increase/decrease of above-ground part: 112%
  Increase/decrease of underground part: 106%
[1]; 100 ppm
  Increase/decrease of above-ground part: 106%
  Increase/decrease of underground part: 101%
[1]; seed dressing 1 ppm
  Weight of above-ground part FW: 54.0 mg/individual
  Weight of underground part FW: 15.6 mg/individual
[1]; seed dressing 10 ppm
  Weight of above-ground part FW: 57.2 mg/individual
  Weight of underground part FW: 15.3 mg/individual
[1]; seed dressing 100 ppm
  Weight of above-ground part FW: 53.9 mg/individual
  Weight of underground part FW: 14.6 mg/individual
[1]; seed dressing, growth promotion
  optimum concentration of hesperidin to be added for cabbage: lower than 100 ppm
[2]; 1 ppm
  Increase/decrease of above-ground part: 109%
  Increase/decrease of underground part: 133%
[2]; 10 ppm
  Increase/decrease of above-ground part: 113%
  Increase/decrease of underground part: 142%
[2]; 100 ppm
  Increase/decrease of above-ground part: 149%
  Increase/decrease of underground part: 126%
[2]; [13]
  Weight of above-ground part FW: 27.4 mg/individual
  Weight of underground part FW: 7.6 mg/individual
[2]; [14]
  Weight of above-ground part FW: 28.3 mg/individual
  Weight of underground part FW: 8.1 mg/individual
[2]; [15]
  Weight of above-ground part FW: 37.4 mg/individual
  Weight of underground part FW: 7.2 mg/individual
[3]; [16]
  Root length: 15.0 mm
[3]; Normal cultivation
  Root length: 22.2 mm
[4]; 100 ppm
  Germination rate, Increase rate: 215.8%
[4]; 1000 ppm
  Germination rate, Increase rate: 173.7%
[4]; then soaked at 100 ppm
  Germination rate, Average: 68.3%
[4]; then soaked at 1000 ppm
  Germination rate, Average: 55.0%
[5]; 1 ppm
  Germination rate, Increase rate: 131.5%
[5]; 10 ppm
  Germination rate, Increase rate: 146.6%
[5]; 100 ppm
  Germination rate, Increase rate: 134.0%
[5]; then soaked 1 hour at 1 ppm
  Germination rate, Average: 77.3%
[5]; then soaked 1 hour at 10 ppm
  Germination rate, Average: 86.2%
[5]; then soaked 1 hour at 100 ppm
  Germination rate, Average: 78.8%
[6]; Acid stress (pH 4), 0.1 ppm
  Root length, Average: 17.69 mm
  Root length, Increase rate: 121.9%
[6]; Acid stress (pH 4), 1 ppm
  Root length, Average: 18.03 mm
  Root length, Increase rate: 124.3%
[6]; Alkali stress (pH 9), 0.1 ppm
  Root length, Average: 17.55 mm
  Root length, Increase rate: 114.1%
[6]; Alkali stress (pH 9), 1 ppm
  Root length, Average: 17.40 mm
  Root length, Increase rate: 113.1%
[7]; High-temperature treatment (42° C., 1.5 hours), then 23° C. 2 days
  Root length: 24.0 mm
[7]; Normal cultivation
  Root length: 25.1 mm
[8]; 0.1 ppm
  Root length, Average: 49.89 mm
  Root length, Increase rate: 214.2%
[8]; 1 ppm
  Root length, Average: 55.81 mm
  Root length, Increase rate: 239.6%
[9]; 10 ppm foliar spraying on cucumber
  Preventive value: 5.0
[9]; 100 ppm foliar spraying on cucumber
  Preventive value: 50.0
[9]; 1,000 ppm foliar spraying on cucumber
  Preventive value: 68
[10]; [16]
  Root length: 16.5 mm
[10]; Normal cultivation
  Root length: 23.1 mm
[11]; 100 ppm
  Fresh weight of above-ground part, Increase rate: 118.0%
  Fresh weight of underground part, Increase rate: 130.6%
[11]; 1000 ppm
  Fresh weight of above-ground part, Increase rate: 97.1%
  Fresh weight of underground part, Increase rate: 103.2%
[11]; drenching 100 ppm
  Fresh weight of above-ground part, Average: 0.87 g
  Fresh weight of underground part, Average: 0.32 g
[11]; drenching 1000 ppm
  Fresh weight of above-ground part, Average: 0.72 g
  Fresh weight of underground part, Average: 0.25 g
[12]; [16]
  Root length: 10.9 mm
[12]; Normal cultivation
  Root length: 19.2 mm
